Patent US20090131527A1, “NOVEL ANTHRANILIC ACID DERIVATIVES AND CHLORIDE CHANNEL BLOCKING AGENT CONTAINING THE SAME” (Korea Institute of Science and Technology, priority 2007, published 2009)

Target: Cl− channel activated by Ca2+ (calcium ion-activated chloride channels) (Xenopus laevis, UniProt B5SVV6)
Assay: Two-electrode voltage clamp recording of Ca2+-activated chloride current in Xenopus Laevis eggs (ionomycin/thapsigargin treated)
Format: cell-based
Conditions: for IC50: calcium ion-activated chloride channel current in Xenopus Laevis eggs, activated with 5 mM Ca2+, 15 s pretreatment with chemical; for inhibitory activity of calcium activated chloride channel current (in words): compared to the conventional anthranilic acid derivatives flufenamic acid and mefenamic acid / known inhibitors
Protocol: The prepared eggs were treated with 10 μM ionomycin (Sigma) for 30 min.
An intracellular solution was prepared by adding 0.5 mM EGTA and 1 μM Chelerythrine (Sigma) into a 1 M KCl solution, which was filled in glass microelectrodes. One of the above prepared eggs was placed on the chamber and two electrodes were inserted into opposite sides of the egg while the recording solution was poured. Current was measured by performing two-electrode voltage clamp recording according to a protocol suitable for the purpose of the experiment.
In order to activate a Ca^2+-dependent chloride channel, 5 mM Ca^2+ was treated first to the above eggs for 5 seconds. After being washed with the above recording solution for 50 seconds, and pretreated with the chemicals in the below Table 1 (treated in the order of […]) for 15 seconds, the eggs were treated with 5 mM Ca^2+ and the above chemicals (same amount as above) to measure the inhibitory concentrations of each chemical by comparing the current measured with 5 mM Ca^2+.

Sequence of Cl− channel activated by Ca2+ (calcium ion-activated chloride channels) (B5SVV6 entry or part of it): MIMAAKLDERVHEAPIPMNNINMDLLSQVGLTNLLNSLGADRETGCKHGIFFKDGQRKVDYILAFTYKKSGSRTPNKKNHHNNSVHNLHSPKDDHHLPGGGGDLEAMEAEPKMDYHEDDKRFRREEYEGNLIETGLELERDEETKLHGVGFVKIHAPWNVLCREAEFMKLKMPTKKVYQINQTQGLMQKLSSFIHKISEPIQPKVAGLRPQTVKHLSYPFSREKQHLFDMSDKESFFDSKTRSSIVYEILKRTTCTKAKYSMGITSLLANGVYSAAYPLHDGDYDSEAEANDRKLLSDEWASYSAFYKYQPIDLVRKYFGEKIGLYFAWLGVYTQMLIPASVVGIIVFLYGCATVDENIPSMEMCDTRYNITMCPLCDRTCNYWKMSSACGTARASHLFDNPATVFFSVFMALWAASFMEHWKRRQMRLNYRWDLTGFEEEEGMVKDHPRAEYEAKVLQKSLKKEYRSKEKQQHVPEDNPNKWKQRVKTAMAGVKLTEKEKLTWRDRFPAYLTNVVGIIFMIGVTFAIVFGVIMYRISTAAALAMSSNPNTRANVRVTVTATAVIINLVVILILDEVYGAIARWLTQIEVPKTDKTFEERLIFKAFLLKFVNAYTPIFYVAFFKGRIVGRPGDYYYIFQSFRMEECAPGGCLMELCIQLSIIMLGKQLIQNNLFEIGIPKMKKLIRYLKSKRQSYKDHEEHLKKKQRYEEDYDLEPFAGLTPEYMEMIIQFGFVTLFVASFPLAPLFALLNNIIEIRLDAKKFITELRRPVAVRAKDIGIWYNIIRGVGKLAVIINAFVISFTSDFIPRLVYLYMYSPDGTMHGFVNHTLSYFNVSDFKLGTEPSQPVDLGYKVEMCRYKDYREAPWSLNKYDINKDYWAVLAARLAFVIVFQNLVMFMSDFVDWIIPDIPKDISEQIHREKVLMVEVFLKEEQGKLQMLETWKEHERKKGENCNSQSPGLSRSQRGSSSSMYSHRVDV

| Structure (SMILES) | IC50 [µM] | inhibitory activity of calcium activated chloride channel current (in words) |
| --- | --- | --- |
| O=C(O)c1cc([N+](=O)[O-])ccc1Nc1ccc([N+](=O)[O-])cc1 [5-Nitro-N-(4-nitrophenyl)anthranilic acid] | 15.4 | notably high inhibitory activity |
| O=C(O)c1c2ccccc2cc2ccccc12 [9-AC, 9-anthracene carboxylic acid, reference compound] | 94.3 | – |
| O=S(=O)(O)c1cc(N=C=S)ccc1C=Cc1ccc(N=C=S)cc1S(=O)(=O)O [DIDS, disodium 4,4′-diisothiocyano-2,2′-stilbenedisulphonic acid, reference compound] | 10.7 | – |
| O=C(O)c1ccccc1Nc1cccc(C(F)(F)F)c1 [Flufenamic acid, reference compound] | 35.4 | – |
| Cc1cccc(Nc2ccccc2C(=O)O)c1C [Mefenamic acid, reference compound] | 44.5 | – |
| O=C(O)c1ccccc1Nc1ccccc1C(F)(F)F [N-(2-Trifluoromethylphenyl)anthranilic acid] | 29.5 | notably high inhibitory activity |
| O=C(O)c1ccccc1Nc1cccc([N+](=O)[O-])c1 [N-(3-Nitrophenyl)anthranilic acid] | 32.1 | notably high inhibitory activity |
| O=C(O)c1ccccc1Nc1ccc(Cl)cc1 [N-(4-Chlorophenyl)anthranilic acid] | 11.3 | notably high inhibitory activity |
| O=C(O)c1ccccc1Nc1ccc(F)c(C(F)(F)F)c1 [N-(4-Fluoro-3-trifluoromethylphenyl)anthranilic acid] | 14.7 | notably high inhibitory activity |
| O=C(O)c1ccccc1Nc1ccc(F)cc1 [N-(4-Fluorophenyl)anthranilic acid] | 63.1 | – |
| CC(C)c1ccc(Nc2ccccc2C(=O)O)cc1 [N-(4-Isopropylphenyl)anthranilic acid] | 17 | – |
| COc1ccc(Nc2ccccc2C(=O)O)cc1 [N-(4-Methoxyphenyl)anthranilic acid] | 102 | – |
| Cc1ccc(Nc2ccccc2C(=O)O)cc1 [N-(4-Methylphenyl)anthranilic acid] | 55.3 | – |
| O=C(O)c1ccccc1Nc1ccc([N+](=O)[O-])cc1 [N-(4-Nitrophenyl)anthranilic acid] | 17.8 | notably high inhibitory activity |
| O=C(O)c1ccccc1Nc1ccc(C(F)(F)F)cc1 [N-(4-Trifluoromethylphenyl)anthranilic acid] | 6 | notably high inhibitory activity |
| CC(C)(C)c1ccc(Nc2ccccc2C(=O)O)cc1 [N-(4-tert-Butylphenyl)anthranilic acid] | 22.9 | notably high inhibitory activity |
| O=C(O)c1ccccc1Nc1ccccc1 [N-Phenylanthranilic acid, reference compound] | 88.1 | – |
| O=C(O)c1cc([N+](=O)[O-])ccc1NCCCc1ccccc1 [NPPB, 5-nitro-2-(3-phenylpropylamino)benzoic acid, reference compound] | 32.3 | – |
| O=C(O)c1cccnc1Nc1cccc(C(F)(F)F)c1 [Niflumic acid, reference compound] | 37.3 | – |
